# Measurements from patent US8084457B2, “Pharmaceutically active 4,6-disubstituted aminopyrimidine derivatives as modulators of protein kinases” (Lead Discovery Center GmbH, priority 2003, dated 2011).
# Key:
# CDK9/Cyclin T1 = target: T1, CDK9/Cyclin T1 (Homo sapiens, UniProt P50750); test: Kinase assay using CDK9/Cyclin T1; assay type: biochemical; conditions: read-out: CDK9 (activity range)
# T1 construct: made in house; host or cells: HEK293 cells, recombinant adenovirus
# Excerpt: Cloning of CDK9 and Cyclin T1:
# Both cDNA fragments were cloned by PCR into pDONR201 vectors using the gateway recombination system (Invitrogen) according to the manufacturer's recommendations. The fragments were subcloned into a gateway-adapted shuttle vector (pPM7) for production of recombinant adenovirus. All plasmids were verified by restriction digests and sequencing analysis.
# Expression and Purification of CDK9/Cyclin T1 Proteins:
# Expression and purification was in principle performed as described by Cotten et al. (M. Cotten et al., Nucleic acids research, 2003, 31(28), 128).
# Kinase Assay Using CDK9/Cyclin T1:
# Kinase assays were performed in principle as described by Cotten et al. (M. Cotten et al., Nucleic acids research, 2003, 31(28), 128).
# CDK2/CyclinA = target: T2, CDK2/CyclinA (Homo sapiens, UniProt P24941); test: Kinase assay determining CDK2/CyclinA activity; assay type: biochemical; conditions: read-out: CDK2 (activity range)
# T2 construct: purchased Proqinase
# Method: Kinase Assays Determining CDK2/CyclinA and CDK5/p35 Activity:
# Kinase assays were performed as described by the manufacturers recommendations (Proqinase for CDK2/CyclinA and Upsate for CDK5/p35).
# T1 sequence (P50750 whole entry): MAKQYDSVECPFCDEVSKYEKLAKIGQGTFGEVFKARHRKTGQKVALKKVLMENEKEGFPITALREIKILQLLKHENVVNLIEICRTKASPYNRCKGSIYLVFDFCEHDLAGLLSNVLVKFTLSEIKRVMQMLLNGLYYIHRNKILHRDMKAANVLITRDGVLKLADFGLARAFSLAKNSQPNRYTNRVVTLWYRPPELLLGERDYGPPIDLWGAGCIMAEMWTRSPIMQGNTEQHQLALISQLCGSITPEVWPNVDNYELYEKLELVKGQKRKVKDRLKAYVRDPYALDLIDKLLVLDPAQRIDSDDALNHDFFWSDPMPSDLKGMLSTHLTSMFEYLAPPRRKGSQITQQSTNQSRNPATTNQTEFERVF
# T1 sequence (O60563 whole entry partner): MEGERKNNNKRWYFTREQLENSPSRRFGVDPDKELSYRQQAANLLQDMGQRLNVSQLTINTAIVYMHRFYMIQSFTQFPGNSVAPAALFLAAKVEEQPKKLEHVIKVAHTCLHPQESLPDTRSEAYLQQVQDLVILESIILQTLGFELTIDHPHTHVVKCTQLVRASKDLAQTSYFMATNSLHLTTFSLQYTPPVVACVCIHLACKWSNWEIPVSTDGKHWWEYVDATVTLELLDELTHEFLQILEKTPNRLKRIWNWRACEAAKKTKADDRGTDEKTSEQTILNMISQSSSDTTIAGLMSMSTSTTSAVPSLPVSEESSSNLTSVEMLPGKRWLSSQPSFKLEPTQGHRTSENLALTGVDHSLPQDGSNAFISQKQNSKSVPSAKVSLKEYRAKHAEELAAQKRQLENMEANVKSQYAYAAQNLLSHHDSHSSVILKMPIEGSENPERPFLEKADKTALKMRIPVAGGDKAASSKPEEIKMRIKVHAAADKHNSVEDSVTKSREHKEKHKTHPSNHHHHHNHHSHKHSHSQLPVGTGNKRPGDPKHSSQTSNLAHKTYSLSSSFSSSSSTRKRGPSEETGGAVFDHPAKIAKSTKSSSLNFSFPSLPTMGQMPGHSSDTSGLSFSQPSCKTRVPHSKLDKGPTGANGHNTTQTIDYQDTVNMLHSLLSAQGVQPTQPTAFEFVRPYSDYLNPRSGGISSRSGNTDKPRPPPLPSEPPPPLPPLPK
IC50 (CDK9/Cyclin T1),IC50 (CDK2/CyclinA),Structure (SMILES)
0.001 to 1 µM,1 to 10 µM,COc1ccccc1-c1cc(Nc2ccc(C(=O)N[C@@H]3CCCC[C@H]3O)cc2)ncn1 (racemic) [(135)]
0.001 to 1 µM,1 to 10 µM,CS(=O)(=O)Nc1cccc(-c2cc(Nc3ccc(C(=O)N[C@@H]4CCCC[C@H]4N)cc3)ncn2)c1 (racemic) [(195)]
10 to 250 µM,1 to 10 µM,COc1ccc(-c2cc(Nc3ccc(NS(=O)(=O)c4ccc(C)cc4)cc3)ncn2)cc1 [(1)]
10 to 250 µM,10 to 250 µM,COc1cccc(-c2cc(Nc3ccc(NS(=O)(=O)c4ccc(C)cc4)cc3)ncn2)c1 [(2)]
1 to 10 µM,0.001 to 1 µM,COc1ccc(-c2cc(Nc3ccc(C)c(NS(C)(=O)=O)c3)ncn2)cc1 [(3)]
0.001 to 1 µM,0.001 to 1 µM,COc1ccccc1-c1cc(Nc2ccc(NS(=O)(=O)c3ccc(C)cc3)cc2)ncn1 [(5)]
0.001 to 1 µM,1 to 10 µM,COc1ccccc1-c1cc(Nc2ccc(NC(=O)c3ccc(N)cc3)cc2)ncn1 [(8)]
0.001 to 1 µM,0.001 to 1 µM,Cc1ccc(S(=O)(=O)Nc2ccc(Nc3cc(-c4ccc(O)cc4)ncn3)cc2)cc1 [(11)]
0.001 to 1 µM,0.001 to 1 µM,Cc1ccc(Nc2cc(-c3cccc(N)c3)ncn2)cc1NS(C)(=O)=O [(12)]
0.001 to 1 µM,0.001 to 1 µM,COC(=O)c1ccc(Nc2cc(-c3ccccc3OC)ncn2)cc1 [(15)]
1 to 10 µM,10 to 250 µM,CCCN(c1ccc(Nc2cc(-c3ccccc3OC)ncn2)cc1)S(=O)(=O)c1ccc(C)cc1 [(18)]
0.001 to 1 µM,1 to 10 µM,COc1ccccc1-c1cc(Nc2ccc(NC(=O)C(C)(C)C)cc2)ncn1 [(19)]
0.001 to 1 µM,1 to 10 µM,COc1ccccc1-c1cc(Nc2ccc(NC(=O)c3ccccc3N)cc2)ncn1 [(20)]
–,10 to 250 µM,COc1ccccc1-c1cc(Nc2ccc(NC(=O)Nc3ccc4c(c3)OCO4)cc2)ncn1 [(111)]
10 to 250 µM,–,COc1ccccc1-c1cc(Nc2ccc(NC(=O)c3cc4ccccc4oc3=O)cc2)ncn1 [(129)]
10 to 250 µM,–,CC(C)(C)C(=O)Nc1ccc(Nc2cc(-c3ccccc3-c3ccccc3)ncn2)cc1 [(132)]
1 to 10 µM,–,COc1ccccc1-c1cc(Nc2ccc(NC(=O)c3n[nH]c4ccccc34)cc2)ncn1 [(141)]
10 to 250 µM,–,CCCS(=O)(=O)Nc1ccc(Nc2ncnc(-c3ccccc3OC)c2C)cc1 [(160)]
1 to 10 µM,–,Cc1ccc(Nc2cc(-c3ccccc3CO)ncn2)cc1NS(C)(=O)=O [(166)]
1 to 10 µM,–,O=C(Nc1ccc(Nc2cc(-c3ccccc3CO)ncn2)cc1)[C@@H]1CCCCN1 [(170)]
1 to 10 µM,–,Cc1ccc(Nc2cc(-c3ccc(CO)cc3)ncn2)cc1NS(C)(=O)=O [(175)]
0.001 to 1 µM,–,CS(=O)(=O)Nc1cccc(-c2cc(Nc3ccc(NC(=O)[C@@H]4CCCCN4)cc3)ncn2)c1 [(178)]
1 to 10 µM,–,COCc1ccccc1-c1cc(Nc2ccc(C)c(NS(C)(=O)=O)c2)ncn1 [(197)]
1 to 10 µM,–,COCc1cccc(-c2cc(Nc3ccc(NC(=O)[C@@H]4CCCCN4)cc3)ncn2)c1 [(203)]
10 to 250 µM,–,COc1ccccc1-c1cc(Nc2ccc(N)cc2)nc(C)n1 [(204)]
1 to 10 µM,–,COCc1ccccc1-c1cc(Nc2ccc(C(=O)NC3CCCCC3N)cc2)ncn1 (centres unmarked) [(210)]

# More lines, now with the values behind:
Structure (SMILES),IC50 (CDK9/Cyclin T1),IC50 (CDK2/CyclinA)
COc1ccc(-c2cc(Nc3ccc(C(=O)N[C@@H]4CCCC[C@H]4N)cc3)ncn2)cc1 (racemic) [(161)],0.001 to 1 µM,1 to 10 µM
N[C@@H]1CCCC[C@H]1NC(=O)c1ccc(Nc2cc(-c3cccc(O)c3)ncn2)cc1 (racemic) [(194)],1 to 10 µM,–
COC(=O)c1cccc(-c2cc(Nc3ccc(C(=O)N[C@@H]4CCCC[C@H]4N)cc3)ncn2)c1 (racemic) [(201)],1 to 10 µM,–
COc1ncc(-c2cc(Nc3ccc(C(=O)N[C@@H]4CCCC[C@H]4N)cc3)ncn2)cn1 (racemic) [(213)],10 to 250 µM,–
Nc1ccc(C(=O)Nc2ccc(Nc3cc(-c4ccccc4OCc4ccccc4)ncn3)cc2)cc1 [(4)],0.001 to 1 µM,1 to 10 µM
COc1ccc(-c2cc(Nc3ccc(NC(=O)c4ccc(N)cc4)cc3)ncn2)cc1 [(6)],0.001 to 1 µM,1 to 10 µM
c1ccc(COc2ccccc2-c2cc(NCCc3ccncc3)ncn2)cc1 [(7)],0.001 to 1 µM,1 to 10 µM
Nc1cccc(-c2cc(NCCc3ccncc3)ncn2)c1 [(13)],1 to 10 µM,1 to 10 µM
Nc1ccc(C(=O)Nc2ccc(Nc3cc(-c4ccc(O)cc4)ncn3)cc2)cc1 [(16)],1 to 10 µM,1 to 10 µM
Cc1ccc(S(=O)(=O)Nc2ccc(Nc3cc(-c4ccc(CCC(=O)O)cc4)ncn3)cc2)cc1 [(17)],10 to 250 µM,10 to 250 µM
Nc1ccc(C(=O)Nc2ccc(Nc3cc(-c4cccc(N)c4)ncn3)cc2)cc1 [(21)],1 to 10 µM,1 to 10 µM
CC(C)(C)C(=O)Nc1ccc(Nc2cc(Cl)ncn2)cc1 [(72)],–,10 to 250 µM
CC(C)(C)C(=O)Nc1ccc(Nc2cc(-c3cccnc3)ncn2)cc1 [(73)],–,10 to 250 µM
CC(C)(C)C(=O)Nc1ccc(Nc2cc(-c3cccc(C(=O)O)c3)ncn2)cc1 [(75)],10 to 250 µM,–
CN1CCN(c2cc(Nc3ccc(NC(=O)C(C)(C)C)cc3)ncn2)CC1 [(78)],–,10 to 250 µM
COc1ccccc1-c1ncnc(Nc2ccc(NC(=O)c3ccc(N)cc3)cc2)c1C [(149)],10 to 250 µM,–
COc1ccc(-c2cc(Nc3ccc(NC(=O)[C@@H]4CCCCN4)cc3)ncn2)cc1 [(167)],1 to 10 µM,–

Structure (SMILES),IC50 (CDK9/Cyclin T1),IC50 (CDK2/CyclinA)
CN(C)c1cccc(-c2cc(Nc3ccc(NC(=O)[C@@H]4CCCCN4)cc3)ncn2)c1 [(169)],1 to 10 µM,–
COc1ccc(-c2cc(Nc3ccc(NC(=O)[C@@H]4CCCCN4)cc3)ncn2)cn1 [(172)],1 to 10 µM,–
O=C(Nc1ccc(Nc2cc(-c3ccc(OCc4ccccc4)cc3)ncn2)cc1)[C@@H]1CCCCN1 [(173)],10 to 250 µM,–
CC(=O)Nc1ccc(-c2cc(Nc3ccc(NC(=O)[C@@H]4CCCCN4)cc3)ncn2)cc1 [(177)],1 to 10 µM,–
CC(=O)c1cccc(-c2cc(Nc3ccc(NC(=O)[C@@H]4CCCCN4)cc3)ncn2)c1 [(179)],10 to 250 µM,–
O=C(NC1CCCC1)c1ccc(-c2cc(Nc3ccc(NC(=O)[C@@H]4CCCCN4)cc3)ncn2)cc1 [(180)],1 to 10 µM,–
CC(=O)c1ccc(-c2cc(Nc3ccc(NC(=O)[C@@H]4CCCCN4)cc3)ncn2)s1 [(191)],1 to 10 µM,–
O=C(Nc1ccc(Nc2cc(-c3cccc(CO)c3)ncn2)cc1)[C@@H]1CCCCN1 [(193)],1 to 10 µM,–
COc1ccc(-c2ncnc(Nc3ccc(NC(=O)c4ccc(N)cc4)cc3)c2C)cc1 [(200)],10 to 250 µM,–
COc1ccc(-c2cc(Nc3ccc(N)cc3)nc(C)n2)cc1 [(205)],10 to 250 µM,–
Nc1cccc(-c2cc(Nc3ccc(C(=O)NC4CCCCC4N)cc3)ncn2)c1 (centres unmarked) [(206)],1 to 10 µM,–
CC(=O)Nc1cccc(-c2cc(Nc3ccc(C(=O)NC4CCCCC4N)cc3)ncn2)c1 (centres unmarked) [(207)],1 to 10 µM,–
NC1CCCCC1NC(=O)c1ccc(Nc2cc(-c3ccc(OCc4ccccc4)cc3)ncn2)cc1 (centres unmarked) [(208)],10 to 250 µM,–
N#Cc1cccc(-c2cc(Nc3ccc(C(=O)NC4CCCCC4N)cc3)ncn2)c1 (centres unmarked) [(209)],1 to 10 µM,–
CN(C)Cc1cccc(-c2cc(Nc3ccc(NC(=O)[C@@H]4CCCCN4)cc3)ncn2)c1 [(211)],1 to 10 µM,–
NC1CCCCC1NC(=O)c1ccc(Nc2cc(-c3cnc4ccccc4c3)ncn2)cc1 (centres unmarked) [(212)],10 to 250 µM,–
